How the values were obtained:
Assay in all cases: KINOMEscan competition binding
Conditions in all cases: compound 10.0 µM
ABL2 (human) = ABL2 (human) (UniProt P42684)
ACVR2A (human) = ACVR2A (human) (UniProt P27037)
ALK (human) = ALK (human) (UniProt Q9UM73)
CAMKK1 (human) = CAMKK1 (human) (UniProt Q8N5S9)
CDK17 (human) = CDK17 (human) (UniProt Q00537)
CDK18 (human) = CDK18 (human) (UniProt Q07002)
CLK3 (human) = CLK3 (human) (UniProt P49761)
CSF1R (human) = CSF1R (human) (UniProt P07333)
[1] = test system: EGFR (human), P00533 [L858R]
EPHA2 (human) = EPHA2 (human) (UniProt P29317)
EPHA6 (human) = EPHA6 (human) (UniProt Q9UF33)
ERBB2 (human) = ERBB2 (human) (UniProt P04626)
ERN1 (human) = ERN1 (human) (UniProt O75460)
FES (human) = FES (human) (UniProt P07332)
MAP2K1 (human) = MAP2K1 (human) (UniProt Q02750)
MAP2K4 (human) = MAP2K4 (human) (UniProt P45985)
MAP3K11 (human) = MAP3K11 (human) (UniProt Q16584)
MAP3K3 (human) = MAP3K3 (human) (UniProt Q99759)
MAP3K6 (human) = MAP3K6 (human) (UniProt O95382)
MELK (human) = MELK (human) (UniProt Q14680)
MST4 (human) = MST4 (human) (UniProt Q9P289)
MYLK3 (human) = MYLK3 (human) (UniProt Q32MK0)
NEK6 (human) = NEK6 (human) (UniProt Q9HC98)
NTRK1 (human) = NTRK1 (human) (UniProt P04629)
NTRK2 (human) = NTRK2 (human) (UniProt Q16620)
NUAK1 (human) = NUAK1 (human) (UniProt O60285)
NUAK2 (human) = NUAK2 (human) (UniProt Q9H093)
PKMYT1 (human) = PKMYT1 (human) (UniProt Q99640)
PTK6 (human) = PTK6 (human) (UniProt Q13882)
RPS6KA1 KD1 (human) = RPS6KA1 KD1 (human) (UniProt Q15418)
RPS6KA4 KD1 (human) = RPS6KA4 KD1 (human) (UniProt O75676)
STK10 (human) = STK10 (human) (UniProt O94804)
TGFBR2 (human) = TGFBR2 (human) (UniProt P37173)
TNIK (human) = TNIK (human) (UniProt Q9UKE5)
[2] = target: TYK2 JH1 catalytic (human) (UniProt P29597)
WEE1 (human) = WEE1 (human) (UniProt P30291)
YES1 (human) = YES1 (human) (UniProt P07947)

Sequence of TGFBR2 (human) (P37173 whole entry, looked up): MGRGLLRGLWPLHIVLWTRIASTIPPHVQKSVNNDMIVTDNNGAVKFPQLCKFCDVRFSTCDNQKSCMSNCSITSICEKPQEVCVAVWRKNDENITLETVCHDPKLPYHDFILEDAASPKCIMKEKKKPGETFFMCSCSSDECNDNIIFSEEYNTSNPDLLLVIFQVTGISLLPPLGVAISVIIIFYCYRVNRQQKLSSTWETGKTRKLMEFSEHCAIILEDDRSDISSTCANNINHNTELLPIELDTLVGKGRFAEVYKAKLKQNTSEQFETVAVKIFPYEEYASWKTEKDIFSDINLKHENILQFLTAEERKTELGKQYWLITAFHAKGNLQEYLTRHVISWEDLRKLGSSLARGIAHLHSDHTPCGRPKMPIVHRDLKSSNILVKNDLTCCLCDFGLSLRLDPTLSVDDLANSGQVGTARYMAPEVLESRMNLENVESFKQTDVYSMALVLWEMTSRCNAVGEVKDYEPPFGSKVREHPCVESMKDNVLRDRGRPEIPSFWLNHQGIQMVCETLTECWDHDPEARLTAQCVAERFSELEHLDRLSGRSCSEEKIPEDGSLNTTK
Sequence of CAMKK1 (human) (Q8N5S9 whole entry, looked up): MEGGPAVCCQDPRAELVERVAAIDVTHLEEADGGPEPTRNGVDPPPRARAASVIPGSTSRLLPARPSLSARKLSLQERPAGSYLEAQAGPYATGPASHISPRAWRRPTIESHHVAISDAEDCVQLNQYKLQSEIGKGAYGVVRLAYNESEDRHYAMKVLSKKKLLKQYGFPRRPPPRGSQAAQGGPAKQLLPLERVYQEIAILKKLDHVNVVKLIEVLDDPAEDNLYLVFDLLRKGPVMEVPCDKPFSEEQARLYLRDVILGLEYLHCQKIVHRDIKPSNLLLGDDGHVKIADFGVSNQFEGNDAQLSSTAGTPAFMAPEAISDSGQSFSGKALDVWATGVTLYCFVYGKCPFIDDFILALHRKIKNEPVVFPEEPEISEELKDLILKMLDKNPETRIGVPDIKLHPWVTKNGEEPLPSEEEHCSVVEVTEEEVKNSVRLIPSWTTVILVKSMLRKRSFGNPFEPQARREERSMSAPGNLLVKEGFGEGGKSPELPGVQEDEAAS
Sequence of ERBB2 (human) (P04626 whole entry, looked up): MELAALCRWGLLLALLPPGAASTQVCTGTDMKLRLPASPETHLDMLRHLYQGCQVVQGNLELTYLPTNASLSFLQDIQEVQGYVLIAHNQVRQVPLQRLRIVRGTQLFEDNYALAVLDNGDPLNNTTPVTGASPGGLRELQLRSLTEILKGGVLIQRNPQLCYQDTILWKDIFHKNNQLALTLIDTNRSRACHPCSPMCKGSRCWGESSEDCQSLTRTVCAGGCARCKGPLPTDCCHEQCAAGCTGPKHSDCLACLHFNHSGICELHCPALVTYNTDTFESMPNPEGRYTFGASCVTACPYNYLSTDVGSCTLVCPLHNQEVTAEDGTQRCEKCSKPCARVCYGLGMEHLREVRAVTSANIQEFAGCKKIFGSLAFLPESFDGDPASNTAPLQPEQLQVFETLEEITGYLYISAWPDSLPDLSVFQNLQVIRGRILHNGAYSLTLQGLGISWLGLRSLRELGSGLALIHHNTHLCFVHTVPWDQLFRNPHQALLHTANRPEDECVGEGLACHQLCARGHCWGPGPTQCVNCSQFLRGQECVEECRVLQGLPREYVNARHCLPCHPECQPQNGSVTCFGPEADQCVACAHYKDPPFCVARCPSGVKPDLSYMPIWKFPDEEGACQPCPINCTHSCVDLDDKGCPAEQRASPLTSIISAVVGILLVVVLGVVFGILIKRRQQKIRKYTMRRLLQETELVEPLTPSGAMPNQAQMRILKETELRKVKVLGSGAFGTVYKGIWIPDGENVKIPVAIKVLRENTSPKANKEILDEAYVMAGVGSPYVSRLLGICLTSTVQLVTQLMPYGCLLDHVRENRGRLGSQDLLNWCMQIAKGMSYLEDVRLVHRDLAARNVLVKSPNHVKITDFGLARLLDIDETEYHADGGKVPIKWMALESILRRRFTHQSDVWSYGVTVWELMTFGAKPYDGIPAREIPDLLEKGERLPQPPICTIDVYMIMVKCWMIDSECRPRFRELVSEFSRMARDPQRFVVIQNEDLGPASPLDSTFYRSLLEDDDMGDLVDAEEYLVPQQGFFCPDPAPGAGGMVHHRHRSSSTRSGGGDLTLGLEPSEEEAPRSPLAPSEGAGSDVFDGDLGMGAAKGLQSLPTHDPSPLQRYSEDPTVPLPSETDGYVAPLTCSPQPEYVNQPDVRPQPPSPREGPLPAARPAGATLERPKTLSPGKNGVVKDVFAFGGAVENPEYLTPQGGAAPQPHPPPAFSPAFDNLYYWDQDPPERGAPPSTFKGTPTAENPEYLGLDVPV
Sequence of MELK (human) (Q14680 whole entry, looked up): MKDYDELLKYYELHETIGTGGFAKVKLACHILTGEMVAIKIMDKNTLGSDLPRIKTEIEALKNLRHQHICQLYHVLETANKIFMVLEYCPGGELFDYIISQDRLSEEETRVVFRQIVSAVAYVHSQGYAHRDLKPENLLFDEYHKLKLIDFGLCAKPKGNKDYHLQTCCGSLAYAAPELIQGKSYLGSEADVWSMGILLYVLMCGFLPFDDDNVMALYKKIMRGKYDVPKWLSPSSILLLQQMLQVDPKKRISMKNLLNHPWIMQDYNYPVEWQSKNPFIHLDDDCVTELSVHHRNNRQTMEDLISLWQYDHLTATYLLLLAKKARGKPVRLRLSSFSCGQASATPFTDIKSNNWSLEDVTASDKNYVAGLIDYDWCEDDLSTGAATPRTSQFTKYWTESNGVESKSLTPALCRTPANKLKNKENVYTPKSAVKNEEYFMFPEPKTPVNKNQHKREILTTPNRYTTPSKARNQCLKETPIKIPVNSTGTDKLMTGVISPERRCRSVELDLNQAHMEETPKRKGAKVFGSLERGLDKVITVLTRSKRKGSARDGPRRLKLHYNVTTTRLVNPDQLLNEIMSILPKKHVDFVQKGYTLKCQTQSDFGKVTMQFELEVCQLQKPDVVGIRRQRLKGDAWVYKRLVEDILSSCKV
Sequence of RPS6KA4 KD1 (human) (O75676 whole entry, looked up): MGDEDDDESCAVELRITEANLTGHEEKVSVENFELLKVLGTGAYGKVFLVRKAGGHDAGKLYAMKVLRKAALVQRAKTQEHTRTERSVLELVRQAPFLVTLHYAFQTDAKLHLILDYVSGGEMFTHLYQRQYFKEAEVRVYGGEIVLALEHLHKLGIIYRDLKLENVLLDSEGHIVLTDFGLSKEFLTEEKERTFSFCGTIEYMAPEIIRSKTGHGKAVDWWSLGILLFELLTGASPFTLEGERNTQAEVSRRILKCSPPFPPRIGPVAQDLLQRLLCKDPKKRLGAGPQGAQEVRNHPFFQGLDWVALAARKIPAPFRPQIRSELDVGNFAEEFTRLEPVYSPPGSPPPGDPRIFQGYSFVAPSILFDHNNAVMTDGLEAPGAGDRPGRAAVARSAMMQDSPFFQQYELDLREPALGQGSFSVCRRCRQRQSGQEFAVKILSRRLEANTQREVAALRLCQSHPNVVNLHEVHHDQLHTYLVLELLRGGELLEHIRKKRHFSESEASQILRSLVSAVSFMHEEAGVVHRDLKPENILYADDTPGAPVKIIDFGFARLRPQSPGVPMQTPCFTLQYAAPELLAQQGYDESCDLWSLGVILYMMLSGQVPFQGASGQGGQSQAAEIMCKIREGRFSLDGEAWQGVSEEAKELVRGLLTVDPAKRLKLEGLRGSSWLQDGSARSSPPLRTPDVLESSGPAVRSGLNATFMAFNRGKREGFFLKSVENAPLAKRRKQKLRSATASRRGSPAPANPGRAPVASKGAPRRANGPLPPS
Sequence of MAP3K11 (human) (Q16584 whole entry, looked up): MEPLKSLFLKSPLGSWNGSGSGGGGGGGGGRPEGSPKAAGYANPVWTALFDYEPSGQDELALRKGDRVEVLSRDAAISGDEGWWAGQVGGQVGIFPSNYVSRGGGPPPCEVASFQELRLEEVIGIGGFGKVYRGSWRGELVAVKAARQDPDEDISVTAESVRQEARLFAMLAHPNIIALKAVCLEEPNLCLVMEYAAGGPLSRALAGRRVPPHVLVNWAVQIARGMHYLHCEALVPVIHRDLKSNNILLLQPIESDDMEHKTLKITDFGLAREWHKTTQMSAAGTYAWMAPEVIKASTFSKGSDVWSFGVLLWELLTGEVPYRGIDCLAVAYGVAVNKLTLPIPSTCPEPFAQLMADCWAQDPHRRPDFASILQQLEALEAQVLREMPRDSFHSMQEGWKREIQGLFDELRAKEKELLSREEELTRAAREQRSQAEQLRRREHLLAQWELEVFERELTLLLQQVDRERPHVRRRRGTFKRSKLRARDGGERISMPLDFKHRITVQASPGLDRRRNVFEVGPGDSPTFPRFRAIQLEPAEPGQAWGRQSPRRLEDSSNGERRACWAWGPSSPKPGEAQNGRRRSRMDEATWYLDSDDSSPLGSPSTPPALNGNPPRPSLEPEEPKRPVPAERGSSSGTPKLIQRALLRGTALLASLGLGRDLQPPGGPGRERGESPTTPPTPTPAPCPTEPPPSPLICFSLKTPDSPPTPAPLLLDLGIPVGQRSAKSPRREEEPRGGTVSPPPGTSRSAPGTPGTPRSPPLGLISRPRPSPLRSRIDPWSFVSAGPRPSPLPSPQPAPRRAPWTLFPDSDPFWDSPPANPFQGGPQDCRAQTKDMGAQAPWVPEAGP
Sequence of NEK6 (human) (Q9HC98 whole entry, looked up): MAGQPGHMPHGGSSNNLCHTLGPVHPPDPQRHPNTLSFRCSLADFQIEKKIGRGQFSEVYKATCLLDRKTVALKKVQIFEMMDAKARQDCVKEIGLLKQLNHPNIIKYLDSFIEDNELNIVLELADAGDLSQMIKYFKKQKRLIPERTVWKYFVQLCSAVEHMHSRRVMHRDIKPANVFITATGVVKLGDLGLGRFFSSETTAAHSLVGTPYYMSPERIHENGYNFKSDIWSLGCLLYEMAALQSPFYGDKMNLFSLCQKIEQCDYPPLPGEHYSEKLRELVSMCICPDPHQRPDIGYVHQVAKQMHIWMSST

kinase still bound, per cent of control (ABL2 (human)) | kinase still bound, per cent of control (ACVR2A (human)) | kinase still bound, per cent of control (ALK (human)) | kinase still bound, per cent of control (CAMKK1 (human)) | kinase still bound, per cent of control (CDK17 (human)) | kinase still bound, per cent of control (CDK18 (human)) | kinase still bound, per cent of control (CLK3 (human)) | kinase still bound, per cent of control (CSF1R (human)) | kinase still bound, per cent of control [1] | kinase still bound, per cent of control (EPHA2 (human)) | kinase still bound, per cent of control (EPHA6 (human)) | kinase still bound, per cent of control (ERBB2 (human)) | kinase still bound, per cent of control (FES (human)) | kinase still bound, per cent of control (MAP2K1 (human)) | kinase still bound, per cent of control (MAP2K4 (human)) | kinase still bound, per cent of control (MAP3K11 (human)) | kinase still bound, per cent of control (MELK (human)) | kinase still bound, per cent of control (MST4 (human)) | kinase still bound, per cent of control (MYLK3 (human)) | kinase still bound, per cent of control (NEK6 (human)) | SMILES | also measured
100% | 100% | 29% | 100% | 100% | 100% | 100% | 100% | 100% | 100% | 100% | 100% | 100% | 100% | 100% | 100% | 100% | 100% | 100% | 100% | CCOc1cc(N2CCC(O)CC2)ccc1Nc1ncc2c(n1)N(C)c1ccccc1C(=O)N2C | kinase still bound, per cent of control (ERN1 (human)): 100%; kinase still bound, per cent of control (MAP3K3 (human)): 100%; kinase still bound, per cent of control (MAP3K6 (human)): 100%; kinase still bound, per cent of control (NTRK1 (human)): 100%; kinase still bound, per cent of control (NTRK2 (human)): 100%; kinase still bound, per cent of control (NUAK1 (human)): 100%; kinase still bound, per cent of control (NUAK2 (human)): 100%; kinase still bound, per cent of control (PKMYT1 (human)): 100%; kinase still bound, per cent of control (PTK6 (human)): 100%; kinase still bound, per cent of control (RPS6KA1 KD1 (human)): 100%; kinase still bound, per cent of control (RPS6KA4 KD1 (human)): 100%; kinase still bound, per cent of control (STK10 (human)): 100%; kinase still bound, per cent of control (TGFBR2 (human)): 100%; kinase still bound, per cent of control (TNIK (human)): 100%; kinase still bound, per cent of control [2]: 100%; kinase still bound, per cent of control (WEE1 (human)): 100%; kinase still bound, per cent of control (YES1 (human)): 100%
100% | 100% | 4.6% | 100% | 100% | 100% | 19% | 100% | 100% | 25% | 11% | 100% | 100% | 100% | 100% | 100% | 100% | 100% | 100% | 34% | COc1cc(C)c(Sc2cnc(NC(=O)c3ccc(CNC(C)C(C)C)cc3)s2)cc1C(=O)N1CCN(C(C)=O)CC1 (stereo unspecified) | kinase still bound, per cent of control (MAP3K3 (human)): 100%; kinase still bound, per cent of control (NTRK1 (human)): 20%; kinase still bound, per cent of control (NTRK2 (human)): 23%; kinase still bound, per cent of control (NUAK1 (human)): 100%; kinase still bound, per cent of control (NUAK2 (human)): 25%; kinase still bound, per cent of control (PKMYT1 (human)): 100%; kinase still bound, per cent of control (PTK6 (human)): 100%; kinase still bound, per cent of control (RPS6KA1 KD1 (human)): 100%; kinase still bound, per cent of control (RPS6KA4 KD1 (human)): 100%; kinase still bound, per cent of control (STK10 (human)): 13%; kinase still bound, per cent of control (TGFBR2 (human)): 100%; kinase still bound, per cent of control (TNIK (human)): 100%; kinase still bound, per cent of control [2]: 100%; kinase still bound, per cent of control (WEE1 (human)): 100%; kinase still bound, per cent of control (YES1 (human)): 12%
100% | 100% | 4.5% | 18% | 100% | 100% | 8.3% | 100% | 0.3% | 100% | 100% | 18% | 2.3% | 100% | 22% | 100% | 100% | 100% | 100% | 100% | COc1cc(N2CCC(C(N)=O)CC2)ccc1Nc1nc(N)c(Cl)c(Nc2ccccc2S(=O)(=O)C(C)C)n1 | kinase still bound, per cent of control (MAP3K3 (human)): 100%; kinase still bound, per cent of control (NTRK1 (human)): 100%; kinase still bound, per cent of control (NTRK2 (human)): 100%; kinase still bound, per cent of control (NUAK1 (human)): 100%; kinase still bound, per cent of control (NUAK2 (human)): 100%; kinase still bound, per cent of control (PKMYT1 (human)): 100%; kinase still bound, per cent of control (PTK6 (human)): 3%; kinase still bound, per cent of control (RPS6KA1 KD1 (human)): 100%; kinase still bound, per cent of control (RPS6KA4 KD1 (human)): 100%; kinase still bound, per cent of control (STK10 (human)): 100%; kinase still bound, per cent of control (TGFBR2 (human)): 100%; kinase still bound, per cent of control (TNIK (human)): 100%; kinase still bound, per cent of control [2]: 100%; kinase still bound, per cent of control (WEE1 (human)): 100%; kinase still bound, per cent of control (YES1 (human)): 100%
0.35% | 100% | 10% | 100% | 100% | 100% | 100% | 0.35% | 2.4% | 4.2% | 0.35% | 100% | 0.85% | 100% | 100% | 100% | 100% | 100% | 100% | 100% | COc1ccc(N(C(=O)Oc2cc(C(=O)Nc3cccc(C(F)(F)F)c3)ccc2C)c2ccnc(Nc3ccc(N4CCN(C)CC4)cc3)n2)c(OC)c1 | kinase still bound, per cent of control (NTRK1 (human)): 27%; kinase still bound, per cent of control (NTRK2 (human)): 24%; kinase still bound, per cent of control (NUAK1 (human)): 100%; kinase still bound, per cent of control (NUAK2 (human)): 100%; kinase still bound, per cent of control (PKMYT1 (human)): 100%; kinase still bound, per cent of control (PTK6 (human)): 4%; kinase still bound, per cent of control (RPS6KA1 KD1 (human)): 100%; kinase still bound, per cent of control (RPS6KA4 KD1 (human)): 100%; kinase still bound, per cent of control (STK10 (human)): 0%; kinase still bound, per cent of control (TGFBR2 (human)): 100%; kinase still bound, per cent of control (TNIK (human)): 12%; kinase still bound, per cent of control [2]: 27%; kinase still bound, per cent of control (WEE1 (human)): 100%; kinase still bound, per cent of control (YES1 (human)): 0.45%
